{
  "source": "patent US5959145A",
  "about": "“Fatty acid analog enzyme substrates” (priority 1993, dated 1999)",
  "key": {"[1]": {"assay": "growth, toxicity and total protein synthesis in yeast cells", "format": "cell-based", "conditions": "s. cerevisiae bj405, vs control cells not exposed to exogenous fatty acid, read-out: reduction in total protein synthesis ([35S]methionine into TCA precipitable protein)", "procedure": "(§1) Saccharomyces cerevisiae strain BJ405 [MATα, trpl, prbl, prcl, pep4-3; Hemmings et al., Proc. Natl. Acad. Sci. USA 78, 435-439 (1981)] (previously referred to as JR153) was grown to mid-log phase (OD660 nm =1.0-1.2) in YPD medium (1% yeast extract/2% Bactopeptone/2% Dextrose) at 30° C. in a rotary shaker water bath. Cells were pretreated with Cerulenin at 2 μg/ml for 15 minutes and then incubated for 20-45 minutes with unlabeled myristate, palmitate or fatty acid analog at 100 μM in the presence of either 5 μM [9,10-^3 H(N)]-myristate (22.4 Ci/mmol) or L-[^35 S]methionine (1106 Ci/mmol) at 30 μCi/ml of culture.\n(§2) Cells were cooled on ice 5 minutes, pelleted at 10,000×g, then broken and extracted by the method of Towler et al., Proc. Natl. Acad. Sci. USA 83, 2812-2816 (1986). Total protein synthesis was assayed by trichloroacetic acid (TCA) precipitation. Proteins were separated by SDS-12% polyacrylamide gel electrophoresis, and [^3 H]fatty acid incorporation into cellular acyl-proteins was assayed by autoradiography followed by laser densitometry."}, "[2]": {"assay": "C18 reverse phase HPLC elution of fatty acyl peptides (hydrophobicity)", "format": "physicochemical", "procedure": "The fatty acid analog acyl-peptide eluted 7 minutes earlier than the corresponding myristoyl peptide. The free peptide elutes in the void volume (3-5minutes).\nThis difference was evident when the HPLC elution characteristics of fatty acyl peptides were examined. The elution time of a particular acyl-peptide depends strongly on the peptide sequence as well as on the acyl chain attached to that peptide. For example, the elution times of fatty acyl derivatives of GNAAAARR are (in minutes) decanoic acid, 9; dodecanoic acid, 18; myristic acid, 24; and palmitic acid, 30. Elution times for fatty acyl derivatives of GNAAS[^125 I]YRR are 23 and 28 minutes for C12 and C14 fatty acids, respectively (FIG. 2). […] Such a change could alter the biological activity of myristoyl proteins.\n(§3) For these Examples, each analog synthesized is characterized by ^1 H and ^13 C NMR as well as mass spectroscopy. The analogs are then characterized kinetically as NMT substrates. Briefly, fatty acid analogs are converted to their CoA esters with Pseudomonas CoA ligase and incubated with the iodinated peptide GNAAS[^125 I]YRR and a source of NMT. […] The radiolabelled peptide is then used at concentrations which will lead to 50% enzyme saturation (i.e., at its Km) for the determination of fatty acid analog kinetic characteristics. Representative analogs with sulfur or oxygen in the backbone of the fatty acid chain serve as good substrates for NMT in vitro and will compete for incorporation of ^3 H labelled myri-state into yeast proteins in vivo. In addition, these analogs differ markedly in hydrophobicity from myri-state as measured both by C18 reverse phase HPLC elution profiles and by 2-octanol/water partition coefficients. The analog CH3 O(CH2)11 COOH, for example, partitions into water 20 fold better than myristate. It is believed that these analogs will be incorporated into mammalian acylproteins in vivo and that their incorporation into these proteins will drastically alter protein processing or targeting. It is further believed that the incorporation of fatty acid analogs of both myristate and palmitate into ester linked and phosphatidyl inositol glycan linked acylproteins will also dramatically alter their properties. Since many viral proteins and oncogenes are acylated, these compounds represent a new class of potential antiviral and antineoplastic agents."}, "[3]": {"system": "yeast myristoylprotein of Mr 20 kDa", "assay": "competition for [3H]myristate incorporation into yeast acylprotein in vivo", "format": "cell-based", "conditions": "Saccharomyces cerevisiae, 0.75 h, read-out: reduction in incorporation of [3H]myristate into yeast myristoylprotein of Mr 20 kDa", "procedure": "as §1, §2"}, "yeast NMT": {"biological_target": "T1, yeast NMT (Saccharomyces cerevisiae, UniProt P14743)", "T1 construct": "11,000-fold purified preparation of yeast NMT; endogenous in cells; host or cells: yeast (enzyme purified from yeast, 11,000-fold)", "T1 sequence (P14743 1-455)": "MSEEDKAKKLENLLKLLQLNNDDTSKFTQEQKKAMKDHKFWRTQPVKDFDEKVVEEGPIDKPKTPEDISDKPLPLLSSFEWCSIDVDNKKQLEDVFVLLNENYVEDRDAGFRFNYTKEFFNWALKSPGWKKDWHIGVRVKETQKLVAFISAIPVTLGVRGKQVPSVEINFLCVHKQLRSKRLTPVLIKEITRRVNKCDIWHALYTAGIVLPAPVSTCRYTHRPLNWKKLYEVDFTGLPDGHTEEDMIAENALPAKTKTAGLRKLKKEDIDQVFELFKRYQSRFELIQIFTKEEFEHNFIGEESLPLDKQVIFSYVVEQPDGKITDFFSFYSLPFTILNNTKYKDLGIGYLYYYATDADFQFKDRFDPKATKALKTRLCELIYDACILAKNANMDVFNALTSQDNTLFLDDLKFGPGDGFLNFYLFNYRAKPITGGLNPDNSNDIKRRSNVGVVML", "assay": "kinetic characterisation of fatty acid analogs as yeast NMT substrates", "format": "biochemical", "excerpt": "Similar results were obtained using an 11,000-fold purified preparation of yeast NMT [Towler et al., Proc. Natl. Acad. Sci. USA 84, 2708-2712 (1987)].\nOther illustrative examples of the oxy- and thio-substituted fatty acid analog substrate compounds of the invention were synthesized in Examples 6 to 14 and tested in Example 15 as substrates for the yeast NMT.\nas §3"}},
  "data": [
    {"smiles": "CCCCCCCCCCCCCC(=O)O", "note": "[myristic acid, reference compound]", "values": [
      {"measurement": "inhibition at 100 µM", "setting": "[1]", "result": "10 to 15", "unit": "%"},
      {"measurement": "Elution Time", "setting": "[2]; C18 reverse phase HPLC, acyl derivative of GNAAS[125I]YRR, Table 2", "result": 26, "unit": "min"},
      {"measurement": "elution time of fatty acyl derivative of GNAAAARR", "setting": "[2]; reverse phase HPLC", "result": 24, "unit": "min"},
      {"measurement": "elution time of fatty acyl derivative of GNAAS[125I]YRR", "setting": "[2]; reverse phase HPLC, FIG. 2, text", "result": 28, "unit": "min"},
      {"measurement": "inhibition at 100 µM", "setting": "[3]", "result": "75 to 80", "unit": "%"},
      {"measurement": "Peptide Vm", "setting": "yeast NMT; peptide GNAAS[125I]YRR varied, fatty acid analog at 15 μM, myristate control = 100%", "result": 100, "unit": "%"},
      {"measurement": "Acyl CoA Vm", "setting": "yeast NMT; radiolabelled peptide at its Km, analog varied, myristate control = 100%", "result": 100, "unit": "%"},
      {"measurement": "Km", "setting": "yeast NMT; radiolabelled peptide at its Km, analog varied, read-out: Acyl CoA Km", "result": 0.6, "unit": "µM"}
    ]}
  ]
}
